Data reported in publication PMC5218480 (PLoS ONE, 2017).

Test system: MV-4-11 cells
Test: Gene expression microarray analysis (Affymetrix PrimeView) and GSEA
Assay type: cell-based, human
Parameters: RFU PODN (11730768_x_at) / Fold change /veh PODN (11730768_x_at) / RFU LINC00158 (11744669_a_at) / Fold change /veh LINC00158 (11744669_a_at) / RFU DUSP10 (11751237_a_at) / Fold change /veh DUSP10 (11751237_a_at) / RFU ID3 (11757404_x_at) / Fold change /veh ID3 (11757404_x_at) / RFU PLEKHG5 (11737974_s_at) / Fold change /veh PLEKHG5 (11737974_s_at) / RFU LRRC4B (11730491_at) / Fold change /veh LRRC4B (11730491_at) / RFU GIMAP4 (11747438_a_at) / Fold change /veh GIMAP4 (11747438_a_at) / RFU KRT8 (11758183_x_at) / Fold change /veh KRT8 (11758183_x_at) / RFU CNN1 (11734310_a_at) / Fold change /veh CNN1 (11734310_a_at) / RFU VPS37D (11726825_at) / Fold change /veh VPS37D (11726825_at) / RFU C10orf10 (11716522_x_at) / Fold change /veh C10orf10 (11716522_x_at) / RFU KIR2DL2 /// KIR2DL4 /// KIR2DL5A /// KIR2DL5B /// KIR2DS1 /// KIR2DS2 /// KIR2DS3 /// KIR2DS4 /// KIR3DL3 /// KIR3DL3 /// KIR3DS1 (11738374_at) / Fold change /veh KIR2DL2 /// KIR2DL4 /// KIR2DL5A /// KIR2DL5B /// KIR2DS1 /// KIR2DS2 /// KIR2DS3 /// KIR2DS4 /// KIR3DL3 /// KIR3DL3 /// KIR3DS1 (11738374_at) / RFU C1QL1 (11718748_at) / Fold change /veh C1QL1 (11718748_at) / RFU TMPRSS4 (11747572_a_at) / Fold change /veh TMPRSS4 (11747572_a_at) / RFU HAMP (11756126_x_at) / Fold change /veh HAMP (11756126_x_at) / RFU RNFT2 (11725882_a_at) / Fold change /veh RNFT2 (11725882_a_at) / RFU NR4A2 (11747474_a_at) / Fold change /veh NR4A2 (11747474_a_at) / RFU ABCC12 (11746883_a_at) / Fold change /veh ABCC12 (11746883_a_at) / RFU TMEM136 (11760407_x_at) / Fold change /veh TMEM136 (11760407_x_at) / RFU CLDN22 /// WWC2 (11732394_at) / Fold change /veh CLDN22 /// WWC2 (11732394_at) / RFU HLA-DPB1 (11760878_x_at) / Fold change /veh HLA-DPB1 (11760878_x_at) / RFU SPINT1 (11716480_a_at) / Fold change /veh SPINT1 (11716480_a_at) / RFU GAP43 (11754022_s_at) / Fold change /veh GAP43 (11754022_s_at) / RFU A4GNT (11735810_at) / Fold change /veh A4GNT (11735810_at) / RFU PRB3 (11715151_x_at) / Fold change /veh PRB3 (11715151_x_at) / RFU TUBB4B (11761932_at) / Fold change /veh TUBB4B (11761932_at) / RFU CAPN14 (11732068_a_at) / Fold change /veh CAPN14 (11732068_a_at) / RFU TMCC2 (11721928_a_at) / Fold change /veh TMCC2 (11721928_a_at) / RFU IRGQ (11745062_a_at) / Fold change /veh IRGQ (11745062_a_at) / RFU FAM174B (11720279_a_at) / Fold change /veh FAM174B (11720279_a_at) / RFU TMPRSS4 (11748680_a_at) / Fold change /veh TMPRSS4 (11748680_a_at) / RFU FAM212B (11763350_a_at) / Fold change /veh FAM212B (11763350_a_at) / RFU PLEKHG5 (11743358_a_at) / Fold change /veh PLEKHG5 (11743358_a_at) / RFU ZSCAN30 (11745921_a_at) / Fold change /veh ZSCAN30 (11745921_a_at) / RFU CMKLR1 (11741424_a_at) / Fold change /veh CMKLR1 (11741424_a_at) / RFU LOC101060620 /// MAPK8IP1 (11723275_at) / Fold change /veh LOC101060620 /// MAPK8IP1 (11723275_at) / RFU SPTSSB (11747773_x_at) / Fold change /veh SPTSSB (11747773_x_at) / RFU PRSS12 (11739890_at) / Fold change /veh PRSS12 (11739890_at) / RFU BIN1 (11741810_x_at) / Fold change /veh BIN1 (11741810_x_at) / RFU WNT11 (11732464_a_at) / Fold change /veh WNT11 (11732464_a_at) / RFU C10orf10 (11716521_a_at) / Fold change /veh C10orf10 (11716521_a_at) / RFU C5orf56 (11738089_at) / Fold change /veh C5orf56 (11738089_at) / RFU CYB561 (11721691_x_at) / Fold change /veh CYB561 (11721691_x_at) / RFU ANKRD19P (11752326_a_at) / Fold change /veh ANKRD19P (11752326_a_at) / RFU OR2T12 /// OR2T33 /// OR2T8 (11738714_s_at) / Fold change /veh OR2T12 /// OR2T33 /// OR2T8 (11738714_s_at) / RFU VCAN (11748164_a_at) / Fold change /veh VCAN (11748164_a_at) / RFU JSRP1 (11732532_at) / Fold change /veh JSRP1 (11732532_at) / RFU KRTAP10-11 (11738290_x_at) / Fold change /veh KRTAP10-11 (11738290_x_at) / RFU MYO3A (11730013_a_at) / Fold change /veh MYO3A (11730013_a_at) / RFU EBF3 (11725865_a_at) / Fold change /veh EBF3 (11725865_a_at) / RFU CAMK2N1 (11719241_x_at) / Fold change /veh CAMK2N1 (11719241_x_at) / RFU C5orf56 (11738088_a_at) / Fold change /veh C5orf56 (11738088_a_at) / RFU OLFML3 (11715873_a_at) / Fold change /veh OLFML3 (11715873_a_at) / RFU LOC100653217 /// NTM (11731650_a_at) / Fold change /veh LOC100653217 /// NTM (11731650_a_at) / RFU MAPK11 (11762145_a_at) / Fold change /veh MAPK11 (11762145_a_at) / RFU FIZ1 (11724087_x_at) / Fold change /veh FIZ1 (11724087_x_at) / RFU OASL (11726364_x_at) / Fold change /veh OASL (11726364_x_at) / RFU SOX15 (11748057_x_at) / Fold change /veh SOX15 (11748057_x_at) / RFU CD79A (11719716_a_at) / Fold change /veh CD79A (11719716_a_at) / RFU HIST1H1D (11736915_at) / Fold change /veh HIST1H1D (11736915_at) / RFU CASKIN2 (11723855_a_at) / Fold change /veh CASKIN2 (11723855_a_at) / RFU LOC730098 (11760151_x_at) / Fold change /veh LOC730098 (11760151_x_at) / RFU OR4N2 (11742367_at) / Fold change /veh OR4N2 (11742367_at) / RFU PRRT2 (11749266_a_at) / Fold change /veh PRRT2 (11749266_a_at) / RFU SNX32 (11753110_a_at) / Fold change /veh SNX32 (11753110_a_at) / RFU CDHR5 (11726645_a_at) / Fold change /veh CDHR5 (11726645_a_at) / RFU RCAN1 (11760418_a_at) / Fold change /veh RCAN1 (11760418_a_at) / RFU FAM167A (11723789_a_at) / Fold change /veh FAM167A (11723789_a_at) / RFU FAM26E (11764081_at) / Fold change /veh FAM26E (11764081_at) / RFU ISYNA1 (11749810_s_at) / Fold change /veh ISYNA1 (11749810_s_at) / RFU ACY1 (11761880_at) / Fold change /veh ACY1 (11761880_at) / RFU 11764098_at / Fold change /veh 11764098_at / RFU SAMD14 (11745864_x_at) / Fold change /veh SAMD14 (11745864_x_at) / RFU NPB (11741838_a_at) / Fold change /veh NPB (11741838_a_at) / RFU TMPRSS6 (11731388_a_at) / Fold change /veh TMPRSS6 (11731388_a_at) / RFU KRTAP10-2 (11738614_at) / Fold change /veh KRTAP10-2 (11738614_at) / RFU ARHGAP8 /// PRR5-ARHGAP8 (11727945_x_at) / Fold change /veh ARHGAP8 /// PRR5-ARHGAP8 (11727945_x_at) / RFU KRTAP5-7 /// NADSYN1 (11734609_at) / Fold change /veh KRTAP5-7 /// NADSYN1 (11734609_at) / RFU RASL12 (11751679_a_at) / Fold change /veh RASL12 (11751679_a_at) / RFU CDKN2B (11736163_a_at) / Fold change /veh CDKN2B (11736163_a_at) / RFU PRF1 (11729649_at) / Fold change /veh PRF1 (11729649_at) / RFU, ZNF638 /// ZNF638-IT1 / Fold change vs veh, ZNF638 /// ZNF638-IT1 / RFU, PANK3 / Fold change vs veh, PANK3 / RFU, SH3YL1 / Fold change vs veh, SH3YL1 / RFU, ZEB2 / Fold change vs veh, ZEB2 / RFU, NRIP1 / Fold change vs veh, NRIP1 / RFU, PTTG1IP / Fold change vs veh, PTTG1IP / RFU, CAPN2 / Fold change vs veh, CAPN2 / RFU, MED14 / Fold change vs veh, MED14 / RFU, SNORA58 / Fold change vs veh, SNORA58 / RFU, C1orf63 / Fold change vs veh, C1orf63 / RFU, LRRFIP1 / Fold change vs veh, LRRFIP1 / RFU, NDUFAF7 / Fold change vs veh, NDUFAF7 / RFU, SLC12A2 / Fold change vs veh, SLC12A2 / RFU, IBTK / Fold change vs veh, IBTK / RFU, ESF1 / Fold change vs veh, ESF1 / Fold change vs veh, TMEM50B / RFU, TAOK1 / Fold change vs veh, TAOK1 / RFU, ACBD3 / Fold change vs veh, ACBD3 / RFU, TMA16 / Fold change vs veh, TMA16 / RFU, RWDD3 / Fold change vs veh, RWDD3 / RFU, BCAT1 / Fold change vs veh, BCAT1 / RFU, EDEM3 / Fold change vs veh, EDEM3 / RFU, TMEM33 / Fold change vs veh, TMEM33 / RFU, WDR75 / Fold change vs veh, WDR75 / RFU, AHCTF1 / Fold change vs veh, AHCTF1 / RFU, TFRC / Fold change vs veh, TFRC / RFU, ZDHHC17 / Fold change vs veh, ZDHHC17 / RFU, NOM1 / Fold change vs veh, NOM1 / RFU, ARL8B / Fold change vs veh, ARL8B / RFU, ZBTB11 / Fold change vs veh, ZBTB11 / RFU, TAMM41 / Fold change vs veh, TAMM41 / RFU, KIAA1704 /// LOC100996395 / Fold change vs veh, KIAA1704 /// LOC100996395 / RFU, ING1 / Fold change vs veh, ING1 / RFU, TRMT61B / Fold change vs veh, TRMT61B / RFU, FUBP3 / Fold change vs veh, FUBP3 / RFU, TP53 / Fold change vs veh, TP53 / RFU, TNKS2 / Fold change vs veh, TNKS2 / RFU, ZFP14 / Fold change vs veh, ZFP14 / RFU, ACTR2 / Fold change vs veh, ACTR2 / RFU, PPP3R1 / Fold change vs veh, PPP3R1 / RFU, PIK3R1 / Fold change vs veh, PIK3R1 / RFU, HNRNPA1 / Fold change vs veh, HNRNPA1 / RFU, RNF170 / Fold change vs veh, RNF170 / RFU, ZNF28 / Fold change vs veh, ZNF28 / RFU, RNGTT / Fold change vs veh, RNGTT / RFU, OGT / Fold change vs veh, OGT / RFU, BRD1 / Fold change vs veh, BRD1 / RFU, MARS / Fold change vs veh, MARS / RFU, ZNF655 / Fold change vs veh, ZNF655 / RFU, FAHD1 / Fold change vs veh, FAHD1 / RFU, BDP1 / Fold change vs veh, BDP1 / RFU, LRRCC1 / Fold change vs veh, LRRCC1 / RFU, ARID1A / Fold change vs veh, ARID1A / RFU, ZNF146 / Fold change vs veh, ZNF146 / RFU, ZNF330 / Fold change vs veh, ZNF330 / RFU, GPN3 / Fold change vs veh, GPN3 / RFU, C9orf123 / Fold change vs veh, C9orf123 / RFU, N4BP2L2 / Fold change vs veh, N4BP2L2 / RFU, ARFIP1 / Fold change vs veh, ARFIP1 / RFU, FAM179B / Fold change vs veh, FAM179B / RFU, BCL10 / Fold change vs veh, BCL10 / RFU, UHRF1BP1L / Fold change vs veh, UHRF1BP1L / RFU, BET1 / Fold change vs veh, BET1 / RFU, CNOT2 / Fold change vs veh, CNOT2 / RFU, ZNF268 / Fold change vs veh, ZNF268 / Fold change vs veh, ZNF507 / RFU, DGCR2 / Fold change vs veh, DGCR2 / RFU, WDSUB1 / Fold change vs veh, WDSUB1 / Fold change vs veh, HSP90B1 /// MIR3652 / RFU, ADSS / Fold change vs veh, ADSS / RFU, GK / Fold change vs veh, GK / RFU, ZNF148 / Fold change vs veh, ZNF148 / RFU, TAF9 / Fold change vs veh, TAF9 / RFU, SLC1A5 / Fold change vs veh, SLC1A5 / RFU, SLMO2 / Fold change vs veh, SLMO2 / RFU, ABCC4 / Fold change vs veh, ABCC4 / RFU, LOC101060439 /// RAP1B / Fold change vs veh, LOC101060439 /// RAP1B / RFU, RFX7 / Fold change vs veh, RFX7 / RFU, GTPBP10 / Fold change vs veh, GTPBP10 / RFU, CNEP1R1 / Fold change vs veh, CNEP1R1 / RFU, BIVM-ERCC5 /// ERCC5 / Fold change vs veh, BIVM-ERCC5 /// ERCC5 / RFU, ILF3 / Fold change vs veh, ILF3 / RFU 11762660_at / Fold change /veh 11762660_at / RFU VCAN (11757783_s_at) / Fold change /veh VCAN (11757783_s_at) / RFU DDX43 (11728927_at) / Fold change /veh DDX43 (11728927_at) / RFU KRT8 (11758188_x_at) / Fold change /veh KRT8 (11758188_x_at) / RFU NKD1 (11759106_at) / Fold change /veh NKD1 (11759106_at) / RFU SRD5A1 (11742802_a_at) / Fold change /veh SRD5A1 (11742802_a_at) / RFU TPSAB1 /// TPSB2 (11721975_s_at) / Fold change /veh TPSAB1 /// TPSB2 (11721975_s_at) / RFU GSTM3 (11746129_a_at) / Fold change /veh GSTM3 (11746129_a_at) / RFU IL23R (11737362_x_at) / Fold change /veh IL23R (11737362_x_at) / RFU TMEM51 (11727254_a_at) / Fold change /veh TMEM51 (11727254_a_at) / RFU PIWIL2 (11732686_x_at) / Fold change /veh PIWIL2 (11732686_x_at) / RFU ORM1 (11744905_x_at) / Fold change /veh ORM1 (11744905_x_at) / RFU CCDC152 (11743942_at) / Fold change /veh CCDC152 (11743942_at) / RFU ECM1 (11717891_a_at) / Fold change /veh ECM1 (11717891_a_at) / RFU IL23R (11748794_a_at) / Fold change /veh IL23R (11748794_a_at) / RFU TNFAIP8L3 (11732012_x_at) / Fold change /veh TNFAIP8L3 (11732012_x_at) / RFU MBOAT4 (11741988_at) / Fold change /veh MBOAT4 (11741988_at) / RFU 11764193_at / Fold change /veh 11764193_at / RFU TMEM53 (11763286_at) / Fold change /veh TMEM53 (11763286_at) / RFU MAGEB2 (11727129_at) / Fold change /veh MAGEB2 (11727129_at) / RFU TMEM200A (11744735_a_at) / Fold change /veh TMEM200A (11744735_a_at) / RFU CCDC152 (11751479_a_at) / Fold change /veh CCDC152 (11751479_a_at) / RFU FAM211A (11726209_a_at) / Fold change /veh FAM211A (11726209_a_at) / RFU RGS16 (11746705_a_at) / Fold change /veh RGS16 (11746705_a_at) / RFU VCAN (11755009_s_at) / Fold change /veh VCAN (11755009_s_at) / RFU RHOB (11743442_s_at) / Fold change /veh RHOB (11743442_s_at) / RFU RGS16 (11720943_a_at) / Fold change /veh RGS16 (11720943_a_at) / RFU RGS16 (11720944_at) / Fold change /veh RGS16 (11720944_at) / RFU, VPS4B / Fold change vs veh, VPS4B / RFU, CREB1 / Fold change vs veh, CREB1 / RFU, DNAJC13 / Fold change vs veh, DNAJC13 / RFU, GNAQ / Fold change vs veh, GNAQ / RFU, CDK5R1 / Fold change vs veh, CDK5R1 / RFU, ZRANB3 / Fold change vs veh, ZRANB3 / RFU, CUL4A / Fold change vs veh, CUL4A / RFU, CCNY / Fold change vs veh, CCNY / RFU, UFL1 / Fold change vs veh, UFL1 / RFU, COG3 / Fold change vs veh, COG3 / RFU, DIAPH2 / Fold change vs veh, DIAPH2 / RFU, SKA2 / Fold change vs veh, SKA2 / RFU, AFF3 / Fold change vs veh, AFF3 / RFU, LMF1 / Fold change vs veh, LMF1 / RFU, IPO11 / Fold change vs veh, IPO11 / RFU, DFFB / Fold change vs veh, DFFB / RFU, FOXP1 / Fold change vs veh, FOXP1 / RFU, CARD8 / Fold change vs veh, CARD8 / RFU, STRN3 / Fold change vs veh, STRN3 / RFU, ADK / Fold change vs veh, ADK / RFU, RASSF2 / Fold change vs veh, RASSF2 / RFU, WIPF1 / Fold change vs veh, WIPF1 / RFU, LARP1B / Fold change vs veh, LARP1B / RFU, RASA1 / Fold change vs veh, RASA1 / RFU, RB1 / Fold change vs veh, RB1 / RFU, PPFIA1 / Fold change vs veh, PPFIA1 / RFU, MAT2A / Fold change vs veh, MAT2A / RFU, CCT5 / Fold change vs veh, CCT5 / RFU, WDR92 / Fold change vs veh, WDR92 / RFU, CUX1 / Fold change vs veh, CUX1 / RFU, TTC7A / Fold change vs veh, TTC7A / RFU, TMEM135 / Fold change vs veh, TMEM135 / RFU, DEPTOR / Fold change vs veh, DEPTOR / RFU, CPM / Fold change vs veh, CPM / RFU, DNAJB6 / Fold change vs veh, DNAJB6 / RFU, CACNA2D3 / Fold change vs veh, CACNA2D3 / RFU, DTX4 / Fold change vs veh, DTX4 / RFU, TFCP2 / Fold change vs veh, TFCP2 / RFU, GMCL1 /// GMCL1P1 / Fold change vs veh, GMCL1 /// GMCL1P1 / RFU, AEBP2 / Fold change vs veh, AEBP2 / RFU, SNHG1 /// SNORD22 /// SNORD25 /// SNORD26 /// SNORD27 /// SNORD28 /// SNORD29 /// SNORD31 / Fold change vs veh, SNHG1 /// SNORD22 /// SNORD25 /// SNORD26 /// SNORD27 /// SNORD28 /// SNORD29 /// SNORD31 / Fold change (Aza/veh), C12orf56 (ProbeSet 11735607_a_at) / Fold change (ACY-1035/veh), C12orf56 (ProbeSet 11735607_a_at) / Fold change (Aza/veh), FGFR1OP (ProbeSet 11751329_s_at) / Fold change (ACY-1035/veh), FGFR1OP (ProbeSet 11751329_s_at) / Fold change (Aza/veh), VPS36 (ProbeSet 11739960_a_at) / Fold change (ACY-1035/veh), VPS36 (ProbeSet 11739960_a_at) / RFU SYPL1 (11715823_x_at) / Fold change /veh SYPL1 (11715823_x_at) / RFU IGFBP7 (11715501_s_at) / Fold change /veh IGFBP7 (11715501_s_at) / RFU REEP3 (11722064_at) / Fold change /veh REEP3 (11722064_at) / RFU IGLL1 (11728026_x_at) / Fold change /veh IGLL1 (11728026_x_at): dose or concentration left out as unconfirmed
Conditions: MV-4-11 cells, 48 hours

Compound: Nc1ncn([C@@H]2O[C@H](CO)[C@@H](O)[C@H]2O)c(=O)n1 [azacitidine]
- Fold change /veh KRT8 (11758183_x_at): 1.18
